Results as given in patent US20240285634A1, “COMPOUND AND METHOD FOR TREATING CHEMOTHERAPY-ASSOCIATED GASTROINTESTINAL SIDE EFFECTS” (ONQUALITY PHARMACEUTICALS CHINA LTD., priority 2021, published 2024).
Structures can show the parent of a compound that is named as a salt.

Columns and labels:
[1] = test system: Balb/c mice, constipation caused by continuous administration of a chemotherapeutic agent; assay: Relieving effect on constipation caused by the continuous administration of a chemotherapeutic agent (Examples 385-405); assay type: in vivo; settings: Fluorouracil (5-Fu) 100 mg/kg intraperitoneal injection once a day for 5 days, compound 150 mg/kg intraperitoneal injection once a day for 5 days, experimental cycle 9 days
Excerpt: Balb/c mice were fed for 1 week, and then divided into groups. The experiment was divided into a control group, a chemotherapeutic agent group, and a group of the compound as shown in Formula I, each of which comprised 10 mice, to perform the administration experiment, for which the administration dosage, mode, time and frequency were shown in Table 6. The control group: being injected or intragastrically administered with the same solvent as that used in the group of the compound as shown in Formula I (the administration mode and time were shown in Table 6), and then being injected or intragastrically administered with the same solvent as that used in the group of the compound as shown in Formula I (the administration mode was shown in Table 6); the chemotherapeutic agent group: being injected or intragastrically administered with the same solvent as that used in the group of the compound as shown in Formula I (the administration mode and time were shown in Table 6), and then being injected or intragastrically administered with the chemotherapeutic agent (the type, administration mode, time and dosage were shown in Table 6); the group of the compound as shown in Formula I: being injected or intragastrically administered with the compound as shown in Formula I (the administration mode and time were shown in Table 6), and then being administered with the chemotherapeutic agent (the type, administration mode, time and dosage were shown in Table 6).
The feces reduction rate was calculated with reference to the method of Ji Eun Kim (Lab Anim Res. 2016 December; 32(4): 231-240.). Feces reduction rate (%)=(the control group−the chemotherapeutic agent group or the group of the compound as shown in Formula I)/the control group*100%
It is regarded as effective remission when the feces reduction rate of mice in the group of the compound as shown in Formula I is reduced compared with that in the chemotherapeutic agent group.
The feces amount of mice within 3 hours was observed and recorded every day. At the end of the experiment, the number of mice in the group of the compound as shown in Formula I whose feces reduction rate was lower than that of mice in the chemotherapeutic agent group was recorded. Table 6 lists various animal experiment combinations of chemotherapeutic agents and the compound as shown in Formula I, as well as the corresponding experimental results.

[2] = test system: Chemotherapeutic agent-caused diarrhea models of Balb/c mice; assay: Relieving effect on diarrhea caused by a chemotherapeutic agent (Examples 1-201); assay type: in vivo
Excerpt: Construction of mouse animal models: Chemotherapeutic agent-caused diarrhea models of Balb/c mice were constructed according to the administration mode and frequency of the chemotherapeutic agent as shown in Table 3. After administration for several days, mice developed different extents of diarrhea symptoms (as shown in FIG. 1), which were similar to the conditions in human. Thus, chemotherapeutic agent-caused diarrhea models of mice are very good models to mimic diarrhea in human caused by the chemotherapeutic agent.
Balb/c mice were fed for 1 week, and then divided into groups. The experiment was divided into a control group, a chemotherapeutic agent group, and a group of the compound as shown in Formula I, each of which comprised 10 mice, to perform the administration experiment, for which the administration dosage, mode, time and frequency were shown in Table 3. The control group: being injected or intragastrically administered with the same solvent as that used in the group of the compound as shown in Formula I (the injection mode and time were shown in Table 3), and then being injected or intragastrically administered with the same solvent as that used in the chemotherapeutic agent group (the administration mode was shown in Table 3); the chemotherapeutic agent group: being injected or intragastrically administered with the same solvent as that used in the group of the compound as shown in Formula I (the administration mode and time were shown in Table 3), and then being injected or intragastrically administered with the chemotherapeutic agent (the type, administration mode and dosage were shown in Table 3); the group of the compound as shown in Formula I: being injected or intragastrically administered with the compound as shown in Formula I (the administration mode and time were shown in Table 3), and then being administered with the chemotherapeutic agent (the administration mode and dosage were shown in Table 3).
The scoring of diarrhea can refer to the method of Akinobu Kurita (Cancer Chemother Pharmacol 2000; 46:211-20.), Grade 0: normal feces; Grade 1: mild diarrhea, the stools is slightly wet and soft; Grade 2: moderate diarrhea, loose stools and mild perianal contamination; Grade 3: severe diarrhea, watery stools and accompanied by severe perianal staining (see FIG. 1). It is regarded as effective remission when the diarrhea grading of mice in the group of the compound as shown in Formula I is reduced compared with the average diarrhea grading of mice in the chemotherapeutic agent group.
The diarrhea grading of mice was observed and recorded every day. At the end of the experiment, the number of mice in the group of the compound as shown in Formula I whose diarrhea grading was lower than that of mice in the chemotherapeutic agent group was recorded. Table 3 lists various animal experiment combinations of chemotherapeutic agents and the compound as shown in Formula I, as well as the corresponding experimental results. (Relative remission rate %=the number of mice in the group of the compound as shown in Formula I whose diarrhea has been effectively relieved/the total number of mice in the group of the compound as shown in Formula I*100%. The establishment rate of diarrhea model in the chemotherapeutic agent group was 50%-70%, that is, about 5-7 of 10 mice developed diarrhea during the experiment, and there were cases of individual mice death or not developing diarrhea.)

CN1CCN(c2ccc(Nc3ncc4cc5n(c4n3)C3(CCCCC3)CNC5=O)nc2)CC1 [Compound I hydrochloride, Trilaciclib dihydrochloride]
Relative remission rate (%) ([1]; Example 393, 0.5 h before the chemotherapeutic agent): 70%
Relative remission rate (%) ([1]; Example 394, 4 h before the chemotherapeutic agent): 50%
Relative remission rate (%) ([1]; Example 395, 12 h before the chemotherapeutic agent): 30%
Relative remission rate ([2]; Ex 132, Fluorouracil 100 + irinotecan 200 mg/kg intraperitoneal single, compound 150 mg/kg intraperitoneal single 0.5 h before, cycle 8 days): 30%
Relative remission rate ([2]; Ex 133, Fluorouracil 100 + irinotecan 200 mg/kg intraperitoneal single, compound 150 mg/kg intraperitoneal single 6 h before, cycle 8 days): 60%
Relative remission rate ([2]; Ex 134, Fluorouracil 100 + irinotecan 200 mg/kg intraperitoneal single, compound 150 mg/kg intraperitoneal single 12 h before, cycle 8 days): 50%
Relative remission rate ([2]; Ex 161, Fluorouracil 50 + oxaliplatin 5 + irinotecan 50 + tetrahydrofolic acid 90 mg/kg intraperitoneal single, compound 150 mg/kg intraperitoneal single 0.5 h before, cycle 7 days): 70%
Relative remission rate ([2]; Ex 162, Fluorouracil 50 + oxaliplatin 5 + irinotecan 50 + tetrahydrofolic acid 90 mg/kg intraperitoneal single, compound 150 mg/kg intraperitoneal single 12 h before, cycle 7 days): 40%
Relative remission rate ([2]; Ex 194, Topotecan 10 mg/kg intraperitoneal single, compound 100 mg/kg oral single 4 h before, cycle 14 days): 50%
Relative remission rate ([2]; Ex 200, Gemcitabine and carboplatin 120 mg/kg intraperitoneal single, compound 100 mg/kg oral single 4 h before, cycle 8 days): 70%
